[invAb] = inverted abasic unit; m = 2'-O-methyl; r = 2'-OH (RNA); f = 2'-fluoro
Tested on: STAT6 mRNA
Assay: STAT6 siNA screen in mouse NIH 3T3 cells, STAT6 mRNA by quantitative RT-PCR (Taqman)
Assay type: cell-based
Conditions: mouse NIH3T3 cells, 10 nM siNA, 24 hrs, normalized to GAPDH and non-targeting control, n = 2
Outline: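 NIH 3T3 cells, 5000/well, transfected after 24 h with siNA (10 nM final) via RNAiMax and harvested 24 h later. STAT6 mRNA quantified by TaqMan RT-qPCR with GAPDH; knock-down by comparative Ct (2^−ΔΔCt) against non-targeting control siNA.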

| Substance | % KD STAT6 [%] |
| --- | --- |
| 29997-DC: STAT6 siNA duplex; sense SEQ ID NO: 58, antisense SEQ ID NO: 59; target CUACCAUGGUGCCUUCUUA, site 2262 (sense CUACCAUGGUGCCUUCUUATT; antisense UAAGAAGGCACCAUGGUAGUU; sense: DNA at AGT, 2'-fluoro at CU, [invAb] at 5' end, 3' end, backbone not given here; antisense: sugars from the 5' end rrrmmmmmfmffmfmmfmmmm, backbone not given here) [STAT6 siNA duplex; target CUACCAUGGUGCCUUCUUA, site 2262] | 28.7 ± 6.1 |
| 29990-DC: STAT6 siNA duplex; sense SEQ ID NO: 44, antisense SEQ ID NO: 45; target GUGAAAGCCUGGUGGACAU, site 954 (sense GUGAAAGCCUGGUGGACAUTT; antisense AUGUCCACCAGGCUUUCACUU; sense: DNA at AGT, 2'-fluoro at CU, [invAb] at 5' end, 3' end, backbone not given here; antisense: sugars from the 5' end rrrfffmffmmmfffffmfmm, backbone not given here) [STAT6 siNA duplex; target GUGAAAGCCUGGUGGACAU, site 954] | 41.6 ± 7.4 |
| 30008-DC: STAT6 siNA duplex; sense SEQ ID NO: 80, antisense SEQ ID NO: 81; target CUGCUCUGCUCAGAUGUGA, site 2549 (sense CUGCUCUGCUCAGAUGUGATT; antisense UCACAUCUGAGCAGAGCAGUU; sense: DNA at AGT, 2'-fluoro at CU, [invAb] at 5' end, 3' end, backbone not given here; antisense: sugars from the 5' end rrrfmfffmmmfmmmmfmmmm, backbone not given here) [STAT6 siNA duplex; target CUGCUCUGCUCAGAUGUGA, site 2549] | 77.9 ± 7.5 |

Reference: US20120035247A1, “RNA Interference Mediated Inhibition of Signal Transducer and Activator of Transcription 6 (STAT6) Gene Expression Using Short Interfering Nucleic Acid (siNA)” (Merck Sharp & Dohme Corp., priority 2009, published 2012)
